System: perimenopausal and menopausal vasomotor symptoms, hot flashes and excessive sweating
Assay: Clinical use of topiramate for menopausal and perimenopausal vasomotor symptoms
Type: in vivo, human
Text: Based on data and observations made by the inventor, they have found topiramate to have the following, previously undiscovered, beneficial pharmacological effects for patients with excessive sweating and hot flashes. They are as follows: • 1. […] Helps to prevent patients from experiencing hot flashes, excessive sweating, and vasomotor symptoms associated with their perimenopause and menopause. • 3. Substantial improve or completely suppress nighttime vasomotor symptoms, excessive sweating, and hot flashes associated with perimenopause and menopause. • 4. Substantial improve or completely suppress daytime vasomotor symptoms, excessive sweating, and hot flashes associated with perimenopause and menopause. • 5. Effective in controlling these symptoms when taken only on an as needed basis. […] Optionally, the topiramate can be taken as a low dose on an as-needed basis. […] a person had been stable on their current treatment for Panic and Major Depressive Disorders with a satisfactory remission for several years and without any side effect complaints. However, now […], they started developing menopausal symptoms of hot flashes and excessive sweating. After counselling and informed consent about the off-label use, they took a trial of topiramate 25 mg by mouth twice daily. Upon follow up, they confirmed that the excessive sweating was improved with this low dose of topiramate and that they have found it to be effective when taken on an as needed basis, depending on their expectations of physical activity and weather/temperature conditions. […] Several other similar clinical examples were observed.

CC1(C)O[C@@H]2[C@@H](CO[C@@]3(COS(N)(=O)=O)OC(C)(C)O[C@@H]23)O1 [topiramate]
excessive sweating (A person, menopausal hot flashes and excessive sweating, topiramate 25 mg by mouth twice daily, at follow up): improved | effectiveness when taken on an as needed basis (A person, low dose topiramate taken as needed, depending on physical activity and weather/temperature): effective | adverse effects (A person, topiramate 25 mg by mouth twice daily): no adverse effects | side effects (inventor's patients, small doses): minimal to no side effects | vasomotor symptoms, excessive sweating and hot flashes (perimenopausal and menopausal patients, inventor's data and observations): Substantial improvement | treating hot flashes and hyperhidrosis (perimenopausal and menopausal women, doses as low as 12.5 mg per day): highly effective
